From PubChem BioAssay AID248 (DTP/NCI, 2004)
Where “and” joins values, the source holds several entries; their conditions need not be identical. Equal entries are not always repeated. Toxic doses and inconclusive results are not listed. Rule as the data show it: active = T/C of 150% or more; inactive = T/C below 125%.

Tested on: L1210 leukemia ip in BDF1 mice, survival T/C
Experiment: NCI In Vivo Anticancer Drug Screen. Data for tumor model L1210 Leukemia (intraperitoneal) in B6D2F1 (BDF1) mice
Details: endpoint: mean survival time, higher = longer survival
Method in brief: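 Tumor was transplanted into mice, which were then dosed with test compound or vehicle alone. Survival was recorded for each group, and the treated figure was expressed relative to the control figure.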

[1] = dose: 25.0 mg/kg/injection, schedule: Q04DX003 (ip), vehicle: saline
[2] = dose: 50.0 mg/kg/injection, schedule: Q04DX003 (ip), vehicle: saline
[3] = dose: 100.0 mg/kg/injection, schedule: Q04DX002 (ip), vehicle: Klucel (hydroxypropylcellulose) (HPC)
[4] = dose: 200.0 mg/kg/injection, schedule: Q04DX002 (ip), vehicle: Klucel (hydroxypropylcellulose) (HPC)
[5] = dose: 400.0 mg/kg/injection, schedule: Q04DX002 (ip), vehicle: Klucel (hydroxypropylcellulose) (HPC)
[6] = dose: 100.0 mg/kg/injection, schedule: Q04DX003 (ip), vehicle: saline with Tween-80
[7] = dose: 200.0 mg/kg/injection, schedule: Q04DX003 (ip), vehicle: saline with Tween-80
[8] = dose: 400.0 mg/kg/injection, schedule: Q04DX003 (ip), vehicle: saline with Tween-80
[9] = dose: 12.5 mg/kg/injection, schedule: Q01DX009 (ip), vehicle: saline with Tween-80
[10] = dose: 100.0 mg/kg/injection, schedule: Q01DX001 (ip), vehicle: saline
[11] = dose: 200.0 mg/kg/injection, schedule: Q01DX001 (ip), vehicle: saline
[12] = dose: 400.0 mg/kg/injection, schedule: Q01DX001 (ip), vehicle: saline

Measured: T/C

CC(CC(O)c1ccccc1)c1ccccc1 (configuration not stated)
inactive: dose: 100.0 mg/kg/injection, schedule: Q01DX009 (ip), vehicle: saline 102 % of control | dose: 100.0 mg/kg/injection, schedule: Q04DX003 (ip), vehicle: Klucel (hydroxypropylcellulose) (HPC) 98 % of control | dose: 200.0 mg/kg/injection, schedule: Q01DX009 (ip), vehicle: saline 97 % of control | dose: 200.0 mg/kg/injection, schedule: Q04DX003 (ip), vehicle: Klucel (hydroxypropylcellulose) (HPC) 104 % of control | dose: 400.0 mg/kg/injection, schedule: Q01DX009 (ip), vehicle: saline 98 % of control | dose: 400.0 mg/kg/injection, schedule: Q04DX003 (ip), vehicle: Klucel (hydroxypropylcellulose) (HPC) 104 % of control

CCS/C(N)=N\N
inactive: dose: 12.5 mg/kg/injection, schedule: Q01DX009 (ip), vehicle: saline 95 % of control | dose: 25.0 mg/kg/injection, schedule: Q01DX009 (ip), vehicle: saline 98 % of control | [1] 113 % of control | dose: 50.0 mg/kg/injection, schedule: Q01DX009 (ip), vehicle: saline 104 % of control | [2] 98 % of control

CCCCCCCCCCCCCCCCCCNC(=O)NCCN(C)c1ccccc1
inactive: dose: 100.0 mg/kg/injection, schedule: Q01DX009 (ip), vehicle: carboxymethylcellulose (CMC) 87 % of control and 91 % of control | [3] 108 % of control | dose: 100.0 mg/kg/injection, schedule: Q04DX002 (ip), vehicle: carboxymethylcellulose (CMC) 95 % of control and 97 % of control | dose: 100.0 mg/kg/injection, schedule: Q04DX003 (ip), vehicle: carboxymethylcellulose (CMC) 95 % of control | dose: 200.0 mg/kg/injection, schedule: Q01DX009 (ip), vehicle: carboxymethylcellulose (CMC) 90 % of control | [4] 112 % of control | dose: 200.0 mg/kg/injection, schedule: Q04DX002 (ip), vehicle: carboxymethylcellulose (CMC) 93 % of control and 95 % of control | dose: 200.0 mg/kg/injection, schedule: Q04DX003 (ip), vehicle: carboxymethylcellulose (CMC) 104 % of control | [5] 102 % of control | dose: 400.0 mg/kg/injection, schedule: Q04DX002 (ip), vehicle: carboxymethylcellulose (CMC) 95 % of control and 90 % of control | dose: 400.0 mg/kg/injection, schedule: Q04DX003 (ip), vehicle: carboxymethylcellulose (CMC) 86 % of control

O=c1c(-c2ccccc2)coc2ccccc12
inactive: [6] 97 % of control | [7] 92 % of control | [8] 90 % of control

Cc1ccc(S(=O)(=O)OC23CCC(C)(CC2)C2(C3)OCCO2)cc1
inactive: dose: 100.0 mg/kg/injection, schedule: Q04DX002 (ip), vehicle: saline 95 % of control | dose: 200.0 mg/kg/injection, schedule: Q04DX002 (ip), vehicle: saline 98 % of control | dose: 400.0 mg/kg/injection, schedule: Q04DX002 (ip), vehicle: saline 98 % of control

CN(C)c1ccc(/C=N\NC(=S)Nc2ccccc2)c(Cl)c1
inactive: [9] 89 % of control | dose: 12.5 mg/kg/injection, schedule: Q04DX003 (ip), vehicle: saline 98 % of control | dose: 25.0 mg/kg/injection, schedule: Q01DX009 (ip), vehicle: saline with Tween-80 91 % of control | [1] 102 % of control | dose: 50.0 mg/kg/injection, schedule: Q01DX009 (ip), vehicle: saline with Tween-80 97 % of control | [2] 95 % of control | dose: 75.0 mg/kg/injection, schedule: Q01DX009 (ip), vehicle: saline with Tween-80 101 % of control | [10] 87 % of control | dose: 115.0 mg/kg/injection, schedule: Q01DX009 (ip), vehicle: saline with Tween-80 98 % of control | dose: 170.0 mg/kg/injection, schedule: Q01DX009 (ip), vehicle: saline with Tween-80 92 % of control | [11] 95 % of control | [12] 92 % of control

O=c1[nH]c(C(F)(F)F)c(Cc2ccccc2)c(=O)[nH]1
inactive: dose: 100.0 mg/kg/injection, schedule: Q01DX001 (ip), vehicle: gum acacia 95 % of control | dose: 200.0 mg/kg/injection, schedule: Q01DX001 (ip), vehicle: gum acacia 107 % of control

c1ccc2c(c1)O[As](O[As]1Oc3ccccc3O1)O2
inactive: dose: 1.56 mg/kg/injection, schedule: Q04DX003 (ip), vehicle: saline 104 % of control | dose: 3.12 mg/kg/injection, schedule: Q01DX009 (ip), vehicle: saline with Tween-80 108 % of control | dose: 3.12 mg/kg/injection, schedule: Q04DX003 (ip), vehicle: saline 106 % of control | dose: 6.25 mg/kg/injection, schedule: Q01DX009 (ip), vehicle: saline with Tween-80 116 % of control | dose: 6.25 mg/kg/injection, schedule: Q04DX003 (ip), vehicle: saline 115 % of control | [9] 122 % of control | dose: 12.5 mg/kg/injection, schedule: Q04DX003 (ip), vehicle: saline with Tween-80 96 % of control

O=C(Nc1cc(C2=NCCN2)cc(C2=NCCN2)c1)c1ccc(C(=O)Nc2cc(C3=NCCN3)cc(C3=NCCN3)c2)cc1
inactive: dose: 0.37 mg/kg/injection, schedule: Q01DX Z (ip), vehicle: methylcellulose (MC) 94 % of control | dose: 0.75 mg/kg/injection, schedule: Q01DX Z (ip), vehicle: methylcellulose (MC) 111 % of control | dose: 1.5 mg/kg/injection, schedule: Q01DX Z (ip), vehicle: methylcellulose (MC) 101 % of control | dose: 2.0 mg/kg/injection, schedule: Q01DX Z (ip), vehicle: carboxymethylcellulose (CMC) 108 % of control | dose: 3.0 mg/kg/injection, schedule: Q01DX Z (ip), vehicle: methylcellulose (MC) 95 % of control | dose: 4.0 mg/kg/injection, schedule: Q01DX Z (ip), vehicle: carboxymethylcellulose (CMC) 92 % of control | dose: 15.0 mg/kg/injection, schedule: Q01DX Z (ip), vehicle: carboxymethylcellulose (CMC) 92 % of control

c1ccc2c(c1)OC1OC2Oc2ccccc21
inactive: [10] 97 % of control | dose: 177.0 mg/kg/injection, schedule: Q01DX001 (ip), vehicle: saline 104 % of control and 92 % of control | [11] 101 % of control | dose: 266.0 mg/kg/injection, schedule: Q01DX001 (ip), vehicle: saline 93 % of control and 94 % of control | [12] 88 % of control and 90 % of control | dose: 600.0 mg/kg/injection, schedule: Q01DX001 (ip), vehicle: saline 86 % of control and 92 % of control

O=P(c1ccc[nH]1)(c1ccc[nH]1)c1ccc[nH]1
inactive: dose: 100.0 mg/kg/injection, schedule: Q04DX002 (ip), vehicle: gum acacia 101 % of control | dose: 200.0 mg/kg/injection, schedule: Q04DX002 (ip), vehicle: gum acacia 93 % of control | dose: 400.0 mg/kg/injection, schedule: Q04DX002 (ip), vehicle: gum acacia 108 % of control

O=[N+]([O-])c1cc(S(=O)(=O)c2ccc(S)c([N+](=O)[O-])c2)ccc1S
inactive: [3] 89 % of control | [4] 92 % of control | [5] 92 % of control

[Cu+2].[O-]c1ccc(Br)c2cccnc12.[O-]c1ccc(Br)c2cccnc12
inactive: dose: 25.0 mg/kg/injection, schedule: Q01DX001 (ip), vehicle: carboxymethylcellulose (CMC) 103 % of control | dose: 50.0 mg/kg/injection, schedule: Q01DX001 (ip), vehicle: carboxymethylcellulose (CMC) 105 % of control

CC(C)COC(C[N+](=O)[O-])C(Cl)(Cl)Cl (configuration not stated)
inactive: dose: 100.0 mg/kg/injection, schedule: Q01DX009 (ip), vehicle: saline with Tween-80 98 % of control | [6] 92 % of control | dose: 200.0 mg/kg/injection, schedule: Q01DX009 (ip), vehicle: saline with Tween-80 89 % of control | [7] 90 % of control | [8] 92 % of control

OCC1=CCC2c3[nH]c4ccccc4c3CCN2C1 (configuration not stated)
inactive: [6] 106 % of control | [7] 90 % of control
